The source made the active and inactive calls. The rule behind the calls is not given here.
System: rodent carcinogenicity bioassays, tumor incidence
Experiment: CCRIS carcinogenicity studies
Outline: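 Archive of carcinogenicity, mutagenicity, tumor promotion and tumor inhibition results drawn from journals, NCI reports and other sources, expert-reviewed; covers 1985-2011 and is no longer updated.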

**Q.** For `CCCCN(CC)N=O`, which carcinogen call (Species: MOUSE, Strain/Sex: DBA/MALE,FEMALE, Route: ORAL, Dose: 10 MG/KG/D IN DRINKING WATER (TOTAL MEAN DOSE 2360 MG/KG), Tumor Site: Type of Lesion: FORESTOMACH: SQUAMOUS CELL CARCINOMA) is on record?
**A.** active; positive

**Q.** And the carcinogen call (Species: RAT, Strain/Sex: WISTAR/MALE, FEMALE, Route: ORAL, Dose: 0, 10 MG/KG/D FOR 4 WK THEN 5 MG/KG/D FOR DURATION OF STUDY (STUDY DURATION: LIFETIME), Tumor Site: Type of Lesion: ESOPHAGUS: CARCINOMA, PAPILLOMA, PHARYNX: PAPILLOMA, ORAL CAVITY: PAPILLOMA, LIVER: ANGIOSARCOMA, HEPATOCELLULAR CARCINO, Tumor Site: Type of Lesion: ESOPHAGUS: CARCINOMA, PAPILLOMA, PHARYNX: PAPILLOMA, ORAL CAVITY: PAPILLOMA, LIVER: ANGIOSARCOMA, HEPATOCELLULAR CARCINO)?
**A.** active; positive

**Q.** How did the carcinogen call (Species: Rat, Strain/Sex: Sprague-Dawley/Female, Route: Oral, Dose: 0, 25, 100, 400 ppm in drinking water for 2 yr (Study duration: 104 wk), Dose: 0, 25, 100, 400 ppm in drinking water for 2 yr (Study duration: 104 wk), Tumor Site: Type of Lesion: Kidney: Renal tubule adenoma or carcinoma) turn out when `OCC(O)CCl` (stereo not given) was run?
**A.** active; positive

**Q.** What about the carcinogen call (Species: Rat, Strain/Sex: Sprague-Dawley/Male, Route: Oral, Dose: 0, 25, 100, 400 ppm in drinking water for 2 yr (Study duration: 100 wk), Dose: 0, 25, 100, 400 ppm in drinking water for 2 yr (Study duration: 100 wk), Tumor Site: Type of Lesion: Kidney: Renal tubule adenoma or carcinoma, Testes: Leydig cell tumor) of the same compound?
**A.** active; positive

**Q.** What does the source list for `COc1ccc(N)cc1`?
**A.** carcinogen call (Species: MOUSE, Strain/Sex: B6C3F1/FEMALE, Route: ORAL, Dose: 0, 0.5, 1.0% OF DIET FOR 103 WK (STUDY DURATION: 104 WK), Dose: 0, 0.5, 1.0% OF DIET FOR 103 WK (STUDY DURATION: 104 WK)): inactive; negative; carcinogen call (Species: MOUSE, Strain/Sex: B6C3F1/MALE, Route: ORAL, Dose: 0, 0.5, 1.0% OF DIET FOR 103 WK (STUDY DURATION: 104 WK), Dose: 0, 0.5, 1.0% OF DIET FOR 103 WK (STUDY DURATION: 104 WK)): inactive; negative; carcinogen call (Species: RAT, Strain/Sex: F344/FEMALE, Route: ORAL, Dose: 0, 0.3, 0.6% OF DIET FOR 103 WK (STUDY DURATION: 104-105 WK), Dose: 0, 0.3, 0.6% OF DIET FOR 103 WK (STUDY DURATION: 104-105 WK)): inactive; negative; carcinogen call (Species: RAT, Strain/Sex: F344/MALE, Route: ORAL, Dose: 0, 0.3, 0.6% OF DIET FOR 103 WK (STUDY DURATION: 104-105 WK), Dose: 0, 0.3, 0.6% OF DIET FOR 103 WK (STUDY DURATION: 104-105 WK), Tumor Site: Type of Lesion: PREPUTIAL GLAND: ADENOMA OR CARCINOMA): equivocal

**Q.** For `CCOP(=S)(OCC)Oc1ccc2c(C)c(Cl)c(=O)oc2c1`, which carcinogen call (Species: MOUSE, Strain/Sex: B6C3F1/FEMALE, Route: ORAL, Dose: 0, 10, 20 PPM IN DIET, Dose: 0, 10, 20 PPM IN DIET) is on record?
**A.** inactive; negative

**Q.** And the carcinogen call (Species: MOUSE, Strain/Sex: B6C3F1/MALE, Route: ORAL, Dose: 0, 10, 20 PPM IN DIET, Dose: 0, 10, 20 PPM IN DIET)?
**A.** inactive; negative

**Q.** And the carcinogen call (Species: RAT, Strain/Sex: F344/FEMALE, Route: ORAL, Dose: 0, 10, 20 PPM IN DIET, Dose: 0, 10, 20 PPM IN DIET)?
**A.** inactive; negative

**Q.** What about the carcinogen call (Species: RAT, Strain/Sex: F344/MALE, Route: ORAL, Dose: 0, 10, 20 PPM IN DIET, Dose: 0, 10, 20 PPM IN DIET) of the same compound?
**A.** inactive; negative

**Q.** What about the carcinogen call (Species: Rat, Strain/Sex: Wistar/Female (50/group), Route: Oral, Dose: 0 (1% peanut oil), 1, 5, 25 ppm in diet for 24 mo, test material purity 99.2%, Dose: 0 (1% peanut oil), 1, 5, 25 ppm in diet for 24 mo, test material purity 99.2%) of the same compound?
**A.** inactive; negative. according to dpr evaluator; original data not presented. cholinesteras

**Q.** What about the carcinogen call (Species: Rat, Strain/Sex: Wistar/Male (50/group), Route: Oral, Dose: 0 (1% peanut oil), 1, 5, 25 ppm in diet for 24 mo, test material purity 99.2%, Dose: 0 (1% peanut oil), 1, 5, 25 ppm in diet for 24 mo, test material purity 99.2%) of the same compound?
**A.** inactive; negative. according to dpr evaluator; original data not presented. cholinesteras

**Q.** Which carcinogen call (Species: FISH, Strain/Sex: SHASTA RAINBOW TROUT/MALE, FEMALE, Route: IMMERSION, Dose: 0, 0.01, 0.025, 0.05, 0.1, 0.25, 0.5 PPM SOLUTION IN WATER FOR 1 HR EXPOSURE OF EMBRYOS (STUDY DURATION: 13 MO), Dose: 0, 0.01, 0.025, 0.05, 0.1, 0.25, 0.5 PPM SOLUTION IN WATER FOR 1 HR EXPOSURE OF EMBRYOS (STUDY DURATION: 13 MO), Tumor Site: Type of Lesion: LIVER: TUMORS) does the source give for `COc1cc2c(c3oc(=O)c4c(c13)CC[C@@H]4O)[C@@H]1C=CO[C@@H]1O2` here?
**A.** active; positive

**Q.** What about the carcinogen call (Species: FISH, Strain/Sex: SHASTA RAINBOW TROUT/MALE, FEMALE, Route: ORAL, Dose: 0, 4, 8, 16, 32, 64 PPB IN DIET FOR 2 WK FOLLOWED BY CONTROL DIET FOR THE DURATION OF STUDY (STUDY DURATION: 9 MO), Dose: 0, 4, 8, 16, 32, 64 PPB IN DIET FOR 2 WK FOLLOWED BY CONTROL DIET FOR THE DURATION OF STUDY (STUDY DURATION: 9 MO), Tumor Site: Type of Lesion: LIVER: TUMOR) of the same compound?
**A.** active; positive

**Q.** What about the carcinogen call (Species: RAT, Strain/Sex: F344/MALE, Route: ORAL, Dose: 50, 200 PPB IN DIET 2/WK FOR 12 MO, Tumor Site: Type of Lesion: LIVER: HEPATOCELLULAR CARCINOMA) of the same compound?
**A.** active; positive

**Q.** And the carcinogen call (Species: TROUT, Strain/Sex: MT. SHASTA RAINBOW, Route: ORAL, Dose: 29 PPB IN DIET FOR 12 MO, Tumor Site: Type of Lesion: LIVER: HEPATOCELLULAR CARCINOMA)?
**A.** active; positive

**Q.** For `CC(=O)N(O)c1ccc2ccc3cccc4ccc1c2c34`, which carcinogen call (Species: RAT, Strain/Sex: STRAIN-CD/FEMALE, Route: INTRAPERITONEAL, Dose: 0, 67 UMOL/KG BW IN DMSO 3/WK FOR 4 WK (STUDY DURATION: 61 WK)) is on record?
**A.** inactive; negative

**Q.** What about the carcinogen call (Species: RAT, Strain/Sex: STRAIN-CD/FEMALE, Route: INTRAPERITONEAL, Dose: 0, 67 UMOL/KG/BW IN 25 UMOL/ML DMSO 3/WK FOR 4 WK (TOTAL DOSE: 0; 119 UMOL) ADMINISTERED TO WEANLING RATS (STUDY DURATIO, Dose: 0, 67 UMOL/KG/BW IN 25 UMOL/ML DMSO 3/WK FOR 4 WK (TOTAL DOSE: 0; 119 UMOL) ADMINISTERED TO WEANLING RATS (STUDY DURATIO) of the same compound?
**A.** inactive; negative

**Q.** With `CC(Cl)CCl` (stereo not given) as the compound, how does the carcinogen call (Species: MOUSE, Strain/Sex: B6C3F1/FEMALE, Route: GAVAGE, Dose: 0, 125, 250 MG/KG IN CORN OIL 5 D/WK FOR 103 WK (STUDY DURATION: 104 WK), Dose: 0, 125, 250 MG/KG IN CORN OIL 5 D/WK FOR 103 WK (STUDY DURATION: 104 WK), Tumor Site: Type of Lesion: LIVER: ADENOMA, ADENOMA OR CARCINOMA) read?
**A.** active; positive

**Q.** What about the carcinogen call (Species: MOUSE, Strain/Sex: B6C3F1/MALE, Route: GAVAGE, Dose: 0, 125, 250 MG/KG IN CORN OIL 5 D/WK FOR 103 WK (STUDY DURATION: 104 WK), Dose: 0, 125, 250 MG/KG IN CORN OIL 5 D/WK FOR 103 WK (STUDY DURATION: 104 WK), Tumor Site: Type of Lesion: LIVER: ADENOMA, ADENOMA OR CARCINOMA) of the same compound?
**A.** active; positive

**Q.** What about the carcinogen call (Species: RAT, Strain/Sex: F344/FEMALE, Route: GAVAGE, Dose: 0, 125, 150 MG/KG IN CORN OIL 5 D/WK FOR 103 WK (STUDY DURATION: 104 WK), Dose: 0, 125, 150 MG/KG IN CORN OIL 5 D/WK FOR 103 WK (STUDY DURATION: 104 WK), Tumor Site: Type of Lesion: MAMMARY GLAND: ADENOCARCINOMA) of the same compound?
**A.** equivocal

**Q.** And the carcinogen call (Species: RAT, Strain/Sex: F344/MALE, Route: GAVAGE, Dose: 0, 62, 125 MG/KG IN CORN OIL 5 D/WK FOR 103 WK (STUDY DURATION: 104 WK), Dose: 0, 62, 125 MG/KG IN CORN OIL 5 D/WK FOR 103 WK (STUDY DURATION: 104 WK))?
**A.** inactive; negative

**Q.** Which results are given for `O=C(O)c1cc2ccccc2c(N=Nc2ccccc2)c1O`?
**A.** carcinogen call (Species: MOUSE, Strain/Sex: ICR/FEMALE, Route: DERMAL, Dose: 0, 1 MG IN 0.1 ML DISTILLED WATER 2/WK FOR A MEAN TOTAL DOSE OF 122.2 MG (STUDY DURATION: 18 MO)): inactive; negative; carcinogen call (Species: MOUSE, Strain/Sex: ICR/MALE, Route: DERMAL, Dose: 0, 1 MG IN 0.1 ML DISTILLED WATER 2/WK FOR A MEAN TOTAL DOSE OF 122.2 MG (STUDY DURATION: 18 MO)): inactive; negative

**Q.** `CNC(=O)Oc1cccc(N=CN(C)C)c1` was tested. Which carcinogen call (Species: Mouse, Strain/Sex: Crl:CD-1(ICR) BR/Female (50/Group), Route: Oral, Dose: 0, 10, 50, 500 ppm of 95.7% formetanate HCl in diet for 104 wk, study duration 104 wk, Dose: 0, 10, 50, 500 ppm of 95.7% formetanate HCl in diet for 104 wk, study duration 104 wk) did it give?
**A.** inactive; negative

**Q.** And the carcinogen call (Species: Mouse, Strain/Sex: Crl:CD-1(ICR) BR/Male (50/Group), Route: Oral, Dose: 0, 10, 50, 500 ppm of 95.7% formetanate HCl in diet for 104 wk, study duration 104 wk, Dose: 0, 10, 50, 500 ppm of 95.7% formetanate HCl in diet for 104 wk, study duration 104 wk)?
**A.** inactive; negative

**Q.** And the carcinogen call (Species: Rat, Strain/Sex: Crl:COBS CD(SD)BR/Female (50/Group), Route: Oral, Dose: 0, 10, 50, 250 ppm of 95.1-96% formetanate HCl in diet for 104 wk, study duration 104 wk, Dose: 0, 10, 50, 250 ppm of 95.1-96% formetanate HCl in diet for 104 wk, study duration 104 wk)?
**A.** inactive; negative

**Q.** What about the carcinogen call (Species: Rat, Strain/Sex: Crl:COBS CD(SD)BR/Male (50/Group), Route: Oral, Dose: 0, 10, 50, 250 ppm of 95.1-96% formetanate HCl in diet for 104 wk, study duration 104 wk, Dose: 0, 10, 50, 250 ppm of 95.1-96% formetanate HCl in diet for 104 wk, study duration 104 wk) of the same compound?
**A.** inactive; negative
